This is an account of results in PMC8583042, “New Hybrid Compounds Combining Fragments of Usnic Acid and Thioether Are Inhibitors of Human Enzymes TDP1, TDP2 and PARP1” (International Journal of Molecular Sciences, 2021).

Data set [1] has as its target T1, TDP1 (Homo sapiens, UniProt Q9NUW8).
T1 construct: made in house; host or cells: E. coli
Put plainly: Real-time fluorescence assay of TDP1 activity. It counts as biochemical. The following applies: real-time fluorescent assay, 1.5 nM TDP1, 50 nM oligonucleotide; read-out: IC50 (TDP1). From the text: We tested UA and all 14 newly synthesized UA derivatives for their TDP1 inhibitory properties by measuring their IC50 values using a real-time fluorescent assay. […] Compounds 10a,b are sulfoxide analogs of 7g,h.
Human recombinant tyrosyl-DNA phosphodiesterase 1 (TDP1) and human recombinant poly(ADP-ribose)-polymerase1 (PARP1) were expressed in the E. coli system and purified as described.
(§1) The biosensor (5′-[FAM] AAC GTC AGGGTC TTC C [BHQ]-3′) was synthesized in the Laboratory of Nucleic Acid Chemistry at the Institute of Chemical Biology and Fundamental Medicine (Novosibirsk, Russia) and was used for TDP1 enzyme activity real-time fluorescence detection. The reaction mixture (200 μL) contained a TDP1 reaction buffer (50 mM Tris-HCl, pH 8.0, 50 mM NaCl, and 7 mM β-mercaptoethanol), 50 nM oligonucleotide, varied concentrations of the tested compounds, and purified TDP1 in a final concentration 1.5 nM. The reaction mixtures were incubated at a constant temperature of 26 °C in a POLARstar OPTIMA fluorimeter (BMG LABTECH, GmbH, Ortenberg, Germany). Fluorescence intensity was measured (Ex485/Em520 nm) every 1 min for 10 min. The average values of the half maximal inhibitory concentration (IC50) were determined using an eleven-point concentration response curve and calculated using MARS Data Analysis 2.0 (BMG LABTECH). The 50% inhibitory concentration (IC50) was defined as the concentration of the compound that inhibited 50% of the enzyme activity when compared to the untreated controls. At least three independent experiments were carried out to obtain the IC50 values. To determine the kinetic parameters of the TDP1 enzymatic reaction, the apparent maximum rate of enzymatic reaction (Vmax), Michaelis constant (KM), possible inhibition mechanism, and steady-state kinetic experiments were carried out at 5 fixed concentrations of the substrate, with variation in the inhibitor concentrations. The standard reaction mixtures (200 μL) contained reaction buffer components; 50 nM, 100 nM, 200 nM, 500 nM, or 1000 nM substrate; an inhibitor; and 1.5 nM recombinant human TDP1. The initial kinetic curves were obtained in three independent experiments and statistically processed in OriginPro 8.6.0 (OriginLab, Northampton, MA, USA).

The nature of data set [2]: EZ4U colorimetric cytotoxicity test, HEK293A. The following applies: human, HEK293A cells; intrinsic cytotoxicity, 3 days; read-out: HEK293A CC50. The class given is cell-based. An excerpt:
(§2) The low intrinsic cytotoxicity of the additional drug component in the clinically used anticancer cocktails with traditional drugs is very important for treatment. This approach in chemotherapy can reduce the potential resulting toxic load on the body in the case of a combined action of these inhibitors on the activity of several targets. […] The effects of the tested compounds on cell survival are shown on Figure 4 and the CC50 values for three cell lines are shown in Table 1. The intrinsic cytotoxicity of a number of the studied compounds is quite high, namely, they have close IC50 values against the TDP1 and CC50 values on one or several studied cell lines. Most of the compounds generally were more toxic for the HEK293FT and HeLa cell lines than for the HEK293A cell line (Table 1 and Figure 4). The cytotoxicity of the three leader compounds, 7g, 10a, and 7h, was quite high. […] Compound 10b was one of the least toxic among the ten tested compounds.
(§3) Cytotoxicity of the compounds was examined against human cell lines HEK293A (human embryonic kidney)—WT, TDP1 deficient (Tdp1-/-), PARP1 deficient (PARP1-/-), and HeLa (cervical cancer) using an EZ4U colorimetric test (Biomedica, Vienna, Austria). The HEK293A cell line was obtained from Thermo Fisher Scientific (Waltham, MA, USA), and the HeLa cell line was obtained from the Russian Cell Culture Collection (RCCC) Institute of Cytology RAS, St. Petersburg, Russia. The cells were grown in DMEM/F12 medium (Gibco, Thermo Fisher Scientific, Waltham, MA, USA), with 1x GlutaMAX (Gibco, Thermo Fisher Scientific, Waltham, MA, USA), 50 IU/mL penicillin, 50 μg/mL streptomycin (MP Biomedicals), and in the presence of 10% fetal bovine serum (Biolot, Saint-Petersburg, Russia) in a 5% CO2 atmosphere. Cells were grown in the presence of 1% DMSO in the control wells. After the formation of a 30–50% monolayer, the tested compounds were added to the medium, and the cell culture was monitored for 3 days. The values were normalized to their own control in each case. At least three independent experiments were carried out. The 50% cytotoxic concentration (CC50) was defined as the compound concentration that reduced the cell viability by 50% when compared to the untreated controls. The compound concentration that caused 50% cell growth inhibition was determined using OriginPro 8.6.0 software (OriginLab, Northampton, MA, USA). The measurements were carried out in three independent experiments.

Data set [3] in a line: Colorimetric cytotoxicity test, HEK293FT. It counts as cell-based. The conditions noted are these: human, HEK293FT cells, intrinsic cytotoxicity.
Excerpt: as §2, §3

Data set [4] can be described thus: EZ4U colorimetric cytotoxicity test, HeLa. It counts as cell-based, human. The conditions noted are these: human, HeLa cells; intrinsic cytotoxicity, compound alone, 3 days.
Excerpt: as §2, §3

Data set [5] deals with T1, TDP1. Briefly: Steady-state kinetics of the TDP1 reaction (Vmax, KM, type of inhibition). The class given is biochemical. Details: Vmax: unit not given here. The conditions noted are these: for Type of inhibition of TDP1 enzyme reaction: steady-state conditions, fall in both Vmax and KM with increasing inhibitor.
Excerpt: The reversible enzyme inhibitors were classified as competitive, uncompetitive, non-competitive, or mixed, depending on the binding of the enzyme, to the enzyme–substrate complex (ES) or to the enzyme–substrate–inhibitor triple complex (ESI). The enzyme could bind the inhibitor at the different steps of catalysis (before or after the substrate) and at the substrate-binding site or another site. The effect of the inhibitor on enzymatic activity can be analyzed using graphical representations of the Michaelis–Menten equation. […] TDP1 has a catalytic pocket with a narrow positively charged cleft where it binds DNA and with a relatively large cleft that contains a mixed charge distribution for the TOP1 fragment binding. It is known that TDP1 hydrolyzes the DNA–TOP1 adducts via two coordinated nucleophilic attacks of two His residues (His263 and His493) with the covalent intermediate complex formation. The enzyme reaction catalyzed by TDP1 could be inhibited in two steps: the first one is the inhibition of the TDP1 binding to the DNA substrate (the nucleophilic attack of His263). The second step is releasing TDP1 from the transition complex (nucleophilic attack by a water molecule activated by His493). Inhibition of the second step prevents the release of the DNA 3′-phosphate product from the DNA–TDP1 complex. Spinocerebellar ataxia with axonal neuropathy (SCAN1) is a neurological disease that is caused by a TDP1 His493Arg mutation. This mutation prevents the second step of hydrolysis of the intermediate complex and the enzyme remains covalently bound to DNA [47]. The uncompetitive inhibitors also prevent the second step of the reaction, stabilizing the enzyme–DNA covalent complex, which can lead to the accumulation of the single-strand breaks in the cell.
as §1
Table S25 Dependence of TDP1 reaction values V max and K M on the concentration of inhibitors
[7g], mM V max Standard Error K M Standard Error
[7h], mM V max Standard Error K M Standard Error
[10a], mM V max Standard Error K M Standard Error
[10b], mM V max Standard Error K M Standard Error

The mark [6] stands for this setting: inhibitor 0.4 mM (so in the source).
Setting [7] is: inhibitor 0.8 mM (so in the source).
The mark [8] stands for this setting: inhibitor 1.6 mM (so in the source).
[9] abbreviates: inhibitor 3.2 mM (so in the source).
Setting [10] is: inhibitor 6.4 mM (so in the source).

A value given as a limit tells only on which side of the number the result lay.

T1 sequence (Q9NUW8 whole entry): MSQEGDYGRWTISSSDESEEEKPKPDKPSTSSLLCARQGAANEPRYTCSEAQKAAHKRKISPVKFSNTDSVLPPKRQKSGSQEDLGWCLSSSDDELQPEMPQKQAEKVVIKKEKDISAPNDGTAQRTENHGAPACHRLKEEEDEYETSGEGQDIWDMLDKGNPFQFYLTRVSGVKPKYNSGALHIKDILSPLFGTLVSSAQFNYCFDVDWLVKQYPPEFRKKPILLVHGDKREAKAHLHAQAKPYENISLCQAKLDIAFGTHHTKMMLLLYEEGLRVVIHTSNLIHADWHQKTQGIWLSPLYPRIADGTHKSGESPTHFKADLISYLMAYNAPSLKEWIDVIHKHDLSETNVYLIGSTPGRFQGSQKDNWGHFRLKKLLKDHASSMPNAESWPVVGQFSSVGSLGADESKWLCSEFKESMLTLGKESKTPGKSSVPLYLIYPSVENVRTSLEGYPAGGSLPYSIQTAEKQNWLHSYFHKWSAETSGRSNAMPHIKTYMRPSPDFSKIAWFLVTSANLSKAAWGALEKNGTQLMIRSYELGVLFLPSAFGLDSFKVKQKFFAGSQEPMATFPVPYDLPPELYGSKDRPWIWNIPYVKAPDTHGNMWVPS

With `CC(=O)C1=C(O)C=C2Oc3c(C(=O)CSc4nnc(N)s4)c(O)c(C)c(O)c3[C@@]2(C)C1=O` [7c, (2R)-4-acetyl-10-{2-[(5-amino-1,3,4-thiadiazol-2-yl)sulfanyl]acetyl}-5,11,13-trihydroxy-2,12-dimethyl-8-oxatricyclo[7.4.0. 0^2,7]trideca-1(13),4,6,9,11-pentaen-3-one], the IC50 in data set [1] worked out at 4.3 ± 0.5 µM. Moreover, the CC50 at 3 days in data set [2] was > 50 µM; in data set [3], 35 ± 2 µM; in data set [4] it was 33 ± 2 µM.

As to `CC(=O)C1=C(O)C=C2Oc3c(C(=O)CSc4nnc[nH]4)c(O)c(C)c(O)c3C2(C)C1=O` (stereo not shown) [7d], the IC50 in data set [1] turned out to be 25.2 ± 6.5 µM.

As to `CC(=O)C1=C(O)C=C2Oc3c(C(=O)CSc4nc5ccccc5s4)c(O)c(C)c(O)c3C2(C)C1=O` (stereo not shown) [7g], the IC50 in data set [1] was found to be 1.7 ± 0.6 µM. Also, the Vmax in data set [5] (setting [6]) is reported as 35.4; in data set [5] (setting [7]), 25.6; in data set [5] (setting [8]), 23.0; in data set [5] (setting [9]), 19.4; in data set [5] (setting [10]) it was 10.9. Besides, the “Type of inhibition of TDP1 enzyme reaction” value in data set [5] was “uncompetitive”. Also, the CC50 at 3 days in data set [2] was determined as 3.5 ± 0.3 µM; in data set [3] it was 3 ± 1 µM; in data set [4], 2 ± 0.6 µM.

Take `CC(=O)C1=C(O)C=C2Oc3c(C(=O)CSc4ncccc4C(=O)O)c(O)c(C)c(O)c3C2(C)C1=O` (stereo not shown) [7k]: the IC50 in data set [1] stood at 19.6 ± 2.8 µM.

On to `CC(=O)C1=C(O)C=C2Oc3c(C(=O)CSC4=NCCS4)c(O)c(C)c(O)c3[C@@]2(C)C1=O` [7b, (2R)-4-acetyl-10-[2-(4,5-dihydro-1,3-thiazol-2-ylsulfanyl)acetyl]-5,11,13-trihydroxy-2,12-dimethyl-8-oxatricyclo[7.4.0.0^2,7]trideca-1(13),4,6,9,11-pentaen-3-one], for which the IC50 in data set [1] was determined as 4.4 ± 1 µM. The CC50 at 3 days in data set [2] was > 50 µM; in data set [3], 16 ± 5 µM; in data set [4], 11 ± 0.5 µM.

For the compound `CC(=O)C1=C(O)C=C2Oc3c(C(=O)CSc4nc5ccccc5[nH]4)c(O)c(C)c(O)c3[C@@]2(C)C1=O` [7f, (2R)-4-acetyl-10-[2-(1H-1,3-benzodiazol-2-ylsulfanyl)acetyl]-5,11,13-trihydroxy-2,12-dimethyl-8-oxatricyclo[7.4.0.0^2,7]trideca-1(13),4,6,9,11-pentaen-3-one], the IC50 in data set [1] came to 2.4 ± 1 µM. For the same compound, the CC50 at 3 days in data set [2] is > 50 µM; in data set [3] it was 10 ± 2 µM; in data set [4], 13 µM.

Take `CC(=O)C1=C(O)C=C2Oc3c(C(=O)CSc4ccc(Cl)cc4)c(O)c(C)c(O)c3C2(C)C1=O` (stereo not shown) [7h]: the 50% inhibitory concentration (IC50) in data set [1] was 2.2 ± 0.5 µM. The Vmax in data set [5] (setting [6]) was determined as 31.0; in data set [5] (setting [7]), 26.7; in data set [5] (setting [8]) it was 18.5; in data set [5] (setting [9]), 15.3; in data set [5] (setting [10]), 11.2. In addition, the “Type of inhibition of TDP1 enzyme reaction” value in data set [5] is reported as “uncompetitive”. The CC50 at 3 days in data set [2] was determined as 10 ± 2 µM; in data set [3] it was 4 ± 1 µM; in data set [4], 2.5 ± 0.5 µM.

Take `CC(=O)C1=C(O)C=C2Oc3c(C(=O)CSc4ccccn4)c(O)c(C)c(O)c3[C@@]2(C)C1=O` [7i, (2R)-4-acetyl-5,11,13-trihydroxy-2,12-dimethyl-10-[2-(pyridin-2-ylsulfanyl)acetyl]-8-oxatricyclo[7.4.0. 0^2,7]trideca-1(13),4,6,9,11-pentaen-3-one]: the IC50 in data set [1] amounted to 11.9 ± 0.4 µM.

On to `CC(=O)C1=C(O)C=C2Oc3c(C(=O)C[S+]([O-])c4ccc(Cl)cc4)c(O)c(C)c(O)c3[C@@]2(C)C1=O` (stereo partly shown) [10b], for which the Vmax in data set [5] (inhibitor 0.2 mM (so in the source)) amounted to 18.7; in data set [5] (setting [6]), 10.7; in data set [5] (setting [7]) it was 8.5; in data set [5] (setting [8]) it was 6.3. Moreover, in data set [5], the “Type of inhibition of TDP1 enzyme reaction” value is “uncompetitive”. Moreover, the cytotoxic concentration (CC50) at 3 days in data set [2] was > 50 µM; in data set [3] it was 20 ± 3 µM; in data set [4], 27 ± 2 µM.

In the case of `CC(=O)C1=C(O)C=C2Oc3c(C(=O)CSc4ncccn4)c(O)c(C)c(O)c3[C@@]2(C)C1=O` [7j, (2R)-4-acetyl-5,11,13-trihydroxy-2,12-dimethyl-10-[2-(pyrimidin-2-ylsulfanyl)acetyl]-8-oxatricyclo[7.4.0. 0^2,7]trideca-1(13),4,6,9,11-pentaen-3-one], in data set [1], the IC50 was found to be 16.9 ± 2.4 µM.

Take `CC(=O)C1=C(O)C=C2Oc3c(C(=O)CSC(=S)N(C)C)c(O)c(C)c(O)c3[C@@]2(C)C1=O` [7a, (2R)-4-acetyl-10-{2-[(dimethylcarbamothioyl)sulfanyl]acetyl}-5,11,13-trihydroxy-2,12-dimethyl-8-oxatricyclo [7.4.0.0^2,7]trideca-1(13),4,6,9,11-pentaen-3-one]: in data set [1], the IC50 amounted to 5.4 ± 2.9 µM. The CC50 at 3 days was > 50 µM in data set [2], > 50 µM in data set [3] and 13 ± 0.5 µM in data set [4].

On to `CC(=O)C1=C(O)C=C2Oc3c(C(=O)CSc4nc5ccccc5o4)c(O)c(C)c(O)c3C2(C)C1=O` (stereo not shown) [7e], for which the IC50 in data set [1] stood at 3.2 ± 0.5 µM. Moreover, the results for the CC50 at 3 days in data set [2], in data set [3] and in data set [4] were 26 ± 2 µM, 4.5 ± 1 µM and 2.9 ± 0.2 µM, respectively.

What is called IC50 is the concentration needed to halve the response being measured. As usually defined, the CC50 is the concentration giving 50% cytotoxicity.
